Source: DBAASP
Converted amounts (≈) assume the structure as drawn. Blank lines part the entries; values can stand above or below the molecule they belong to.

Assays:
Experiment in all cases: ≥ marks a high value that may be exact or a test limit, other limits are often not marked, values filed in µg/mL are converted to µM
[1] = test system: Escherichia coli NCTC 10418
[2] = test system: Enterococcus faecalis NCTC 12697
[3] = test system: Staphylococcus aureus ATCC 12493
[4] = test system: Escherichia coli BL21AI
[5] = test system: Micrococcus luteus ATCC 10240
[6] = test system: Staphylococcus aureus ATCC 25923
[7] = test system: Escherichia coli ATCC 25726
[8] = test system: Pseudomonas aeruginosa PAO1
[9] = test system: Escherichia coli UB1005
[10] = test system: Pseudomonas aeruginosa
[11] = test system: Proteus mirabilis
[12] = test system: Micrococcus luteus
[13] = test system: Bacillus subtilis
[14] = test system: Escherichia coli
[15] = test system: Salmonella typhimurium
[16] = test system: Shigella dysenteriae
[17] = test system: Staphylococcus aureus
[18] = test system: Klebsiella pneumoniae
[19] = test system: Staphylococcus epidermidis
[20] = test system: Saccharomyces cerevisiae
[21] = test system: Candida albicans
[22] = test system: Serratia marcescens
[23] = test system: Salmonella enterica subsp. enterica serovar Typhimurium ATCC 14028
[24] = test system: Escherichia coli ML-35
[25] = test system: Bacillus megaterium Bm11
[26] = test system: Escherichia coli DH5alpha
[27] = test system: Staphylococcus xylosus

Structure (SMILES): CC(C)C[C@H](NC(=O)[C@H](C)NC(=O)[C@H](Cc1c[nH]c2ccccc12)NC(=O)[C@H](CCCCN)NC(=O)[C@H](CC(C)C)NC(=O)[C@@H](N)Cc1ccccc1)C(=O)N[C@@H](CCCCN)C(=O)N[C@H](C(=O)N[C@@H](C)C(=O)N[C@@H](C)C(=O)N[C@@H](CCCCN)C(N)=O)C(C)C [FLKWALKVAAK]
- MIC [1]: ≥ 512 µM
- MIC [2]: ≥ 512 µM
- MIC [3]: ≥ 512 µM

Structure (SMILES): CC[C@H](C)[C@H](NC(=O)CN)C(=O)N[C@@H](Cc1ccccc1)C(=O)N[C@@H](CO)C(=O)N[C@@H](CCCCN)C(=O)N[C@@H](Cc1ccccc1)C(=O)NCC(=O)NCC(=O)N[C@@H](CCCCN)C(=O)N[C@@H](C)C(=O)N[C@H](C(=O)N[C@@H](CCCCN)C(=O)N[C@@H](CC(N)=O)C(=O)N[C@@H](CC(C)C)C(=O)N[C@@H](Cc1ccccc1)C(=O)N[C@H](C(=O)N[C@@H](CCCCN)C(=O)NCC(=O)N[C@@H](C)C(=O)N[C@@H](CCCCN)C(=O)N[C@@H](CC(N)=O)C(=O)N[C@H](C(=O)NCC(=O)N[C@@H](CCCCN)C(=O)N[C@@H](CCC(=O)O)C(=O)N[C@H](C(=O)NCC(=O)N[C@@H](CCSC)C(=O)N[C@@H](CC(=O)O)C(=O)N[C@H](C(=O)N[C@H](C(=O)N[C@@H](CCCN=C(N)N)C(=O)N[C@H](C(=O)NCC(=O)N[C@H](C(=O)N[C@@H](CC(=O)O)C(=O)N[C@H](C(=O)N[C@@H](C)C(=O)NCC(=O)N[C@H]1CSSC[C@@H](C(=O)O)NC(=O)[C@H](CCC(=O)O)NC(=O)CNC(=O)[C@H](CCCCN)NC(=O)[C@H]([C@@H](C)CC)NC(=O)[C@H](CCCCN)NC1=O)C(C)C)[C@@H](C)CC)[C@@H](C)O)[C@@H](C)CC)C(C)C)C(C)C)[C@@H](C)CC)[C@@H](C)CC)[C@@H](C)CC [GIFSKFGGKAIKNLFIKGAKNIGKEVGMDVIRTGIDVAGCKIKGEC]
- MIC [6]: 13 µM (≈ 62.5 µg/mL)
- MIC [7]: 13 µM (≈ 62.5 µg/mL)

Structure (SMILES): CC(C)C[C@H](NC(=O)[C@H](C)NC(=O)CNC(=O)[C@H](CC(C)C)NC(=O)[C@@H](N)Cc1ccccc1)C(=O)N[C@@H](Cc1ccccc1)C(=O)N[C@@H](CCCCN)C(=O)N[C@@H](Cc1c[nH]c2ccccc12)C(=O)N[C@@H](C)C(=O)N[C@@H](CO)C(=O)N[C@@H](CCCCN)C(=O)O [FLGALFKWASK]
- MIC [10]: 158 µM (≈ 200 µg/mL)
- MIC [11]: ≥ 158 µM
- MIC [12]: ≥ 39.4 µM
- MIC [13]: 9.86 µM (≈ 12.5 µg/mL)
- MIC [14]: 19.7 µM (≈ 25 µg/mL)
- MIC [15]: ≥ 78.9 µM
- MIC [16]: 19.7 µM (≈ 25 µg/mL)
- MIC [17]: 9.86 µM (≈ 12.5 µg/mL)
- MIC [18]: 9.86 µM (≈ 12.5 µg/mL)
- MIC [19]: 19.7 µM (≈ 25 µg/mL)

Structure (SMILES): CC[C@H](C)[C@H](NC(=O)CN)C(=O)N[C@@H](CC(C)C)C(=O)N[C@@H](CC(=O)O)C(=O)N[C@H](C(=O)N[C@@H](CC(C)C)C(=O)N[C@@H](CCCCN)C(=O)N[C@@H](CCC(N)=O)C(=O)N[C@@H](Cc1ccccc1)C(=O)N[C@@H](C)C(=O)N[C@@H](CCCCN)C(=O)NCC(=O)N[C@H](C(=O)NCC(=O)N[C@@H](CCCCN)C(=O)N[C@@H](CC(=O)O)C(=O)N[C@@H](CC(C)C)C(=O)N[C@H](C(=O)N[C@@H](CCCCN)C(=O)NCC(=O)N[C@@H](C)C(=O)N[C@@H](C)C(=O)N[C@@H](CCC(N)=O)C(=O)NCC(=O)N[C@H](C(=O)N[C@@H](CC(C)C)C(=O)O)C(C)C)C(C)C)C(C)C)[C@@H](C)O [GILDTLKQFAKGVGKDLVKGAAQGVL]
- MIC [10]: 19 µM (≈ 50 µg/mL)
- MIC [20]: 9.52 µM (≈ 25 µg/mL)
- MIC [11]: 19 µM (≈ 50 µg/mL)
- MIC [21]: > 38.1 µM
- MIC [12]: 0.952 µM (≈ 2.5 µg/mL)
- MIC [13]: 19 µM (≈ 50 µg/mL)
- MIC [14]: 9.52 µM (≈ 25 µg/mL)
- MIC [15]: 28.5 µM (≈ 75 µg/mL)
- MIC [22]: ≥ 38.1 µM
- MIC [16]: 9.52 µM (≈ 25 µg/mL)
- MIC [19]: 28.5 µM (≈ 75 µg/mL)

Structure (SMILES): CC(C)C[C@H](NC(=O)[C@H](CC(C)C)NC(=O)[C@H](CC(C)C)NC(=O)[C@H](CC(C)C)NC(=O)[C@H](CC(C)C)NC(=O)[C@H](CCCCN)NC(=O)[C@H](CCCCN)NC(=O)[C@@H](N)CCCCN)C(=O)N[C@@H](CCCCN)C(=O)N[C@@H](CCCCN)C(=O)N[C@@H](CCCCN)C(=O)O [KKKLLLLLKKK]
- MIC [26]: 16 µM (≈ 21.6 µg/mL)
- MIC [27]: 8 µM (≈ 10.8 µg/mL)

More lines, now with the values ahead:

- MIC [4]: ≥ 61 µM
- MIC [5]: 3.81 µM (≈ 8 µg/mL)
Structure (SMILES): CC[C@H](C)[C@H](NC(=O)[C@@H]1CCCN1C(=O)[C@H](CCCN=C(N)N)NC(=O)[C@@H]1CCCN1C(=O)[C@H](Cc1cnc[nH]1)NC(=O)[C@H](CO)NC(=O)[C@@H](NC(=O)[C@@H]1CCCN1C(=O)[C@H](CCCN=C(N)N)NC(=O)[C@@H]1CCCN1C(=O)[C@H](CO)NC(=O)[C@H](Cc1ccc(O)cc1)NC(=O)[C@@H]1CCCN1C(=O)[C@H](CCCN=C(N)N)NC(=O)[C@@H]1CCCN1C(=O)[C@H](CCCCN)NC(=O)CN)[C@@H](C)O)C(=O)N[C@@H](CCCN=C(N)N)C(N)=O [GKPRPYSPRPTSHPRPIR]

- MIC [4]: 6.75 µM (≈ 16 µg/mL)
- MIC [5]: 6.75 µM (≈ 16 µg/mL)
- MIC [6]: 38.2 µM (≈ 90.5 µg/mL)
- MIC [8]: 54 µM (≈ 128 µg/mL)
- MIC [9]: 2.11 µM (≈ 5 µg/mL)
Structure (SMILES): CC[C@H](C)[C@H](NC(=O)[C@H](CCCN=C(N)N)NC(=O)[C@H](CCCN=C(N)N)NC(=O)[C@@H]1CCCN1C(=O)[C@@H]1CCCN1C(=O)[C@H](CCCN=C(N)N)NC(=O)[C@@H]1CCCN1C(=O)[C@H](CCCN=C(N)N)NC(=O)[C@@H]1CCCN1C(=O)[C@H](CC(C)C)NC(=O)[C@H](Cc1ccc(O)cc1)NC(=O)[C@@H]1CCCN1C(=O)[C@@H]1CCCN1C(=O)[C@H](CCCCN)NC(=O)[C@H](CC(=O)O)NC(=O)[C@@H](N)C(C)C)C(=O)N[C@@H](Cc1ccc(O)cc1)C(=O)N[C@@H](CC(N)=O)C(=O)N[C@@H](Cc1cnc[nH]1)C(N)=O [VDKPPYLPRPRPPRRIYNH]

- MIC [4]: 8.62 µM (≈ 16 µg/mL)
- MIC [5]: 2.15 µM (≈ 4 µg/mL)
Structure (SMILES): CC(C)C[C@H](NC(=O)[C@H](CCCN=C(N)N)NC(=O)[C@@H]1CCCN1C(=O)[C@H](Cc1cnc[nH]1)NC(=O)[C@@H]1CCCN1C(=O)[C@@H](NC(=O)[C@@H]1CCCN1C(=O)[C@H](CCCN=C(N)N)NC(=O)[C@@H]1CCCN1C(=O)[C@H](CO)NC(=O)[C@H](Cc1ccc(O)cc1)NC(=O)[C@@H]1CCCN1C(=O)[C@H](CCCN=C(N)N)NC(=O)[C@@H]1CCCN1C(=O)[C@H](CCCCN)NC(=O)CN)[C@@H](C)O)C(N)=O [GKPRPYSPRPTPHPRL]

- MIC [4]: 3.19 µM (≈ 8 µg/mL)
- MIC [5]: 3.19 µM (≈ 8 µg/mL)
Structure (SMILES): CC[C@H](C)[C@H](NC(=O)[C@H](CCCN=C(N)N)NC(=O)[C@H](CCCN=C(N)N)NC(=O)[C@@H]1CCCN1C(=O)[C@@H]1CCCN1C(=O)[C@H](CCCN=C(N)N)NC(=O)[C@@H]1CCCN1C(=O)[C@H](CCCN=C(N)N)NC(=O)[C@@H]1CCCN1C(=O)[C@H](CC(C)C)NC(=O)[C@H](Cc1ccc(O)cc1)NC(=O)[C@@H]1CCCN1C(=O)[C@@H]1CCCN1C(=O)[C@H](CCCCN)NC(=O)[C@H](CC(=O)O)NC(=O)[C@@H](N)C(C)C)C(=O)N[C@@H](Cc1ccc(O)cc1)C(=O)N[C@@H](CC(N)=O)C(=O)N[C@@H](CC(N)=O)C(=O)N[C@@H](CCCN=C(N)N)C(N)=O [VDKPPYLPRPRPPRRIYNNR]

- MIC [6]: 8 µM (≈ 19.1 µg/mL)
- MIC [23]: 8 µM (≈ 19.1 µg/mL)
- MIC [24]: 4 µM (≈ 9.53 µg/mL)
- MIC [25]: 8 µM (≈ 19.1 µg/mL)
Structure (SMILES): CC(C)C[C@H](NC(=O)[C@H](CCCN=C(N)N)NC(=O)[C@H](CCCN=C(N)N)NC(=O)[C@H](Cc1ccccc1)NC(=O)[C@H](CCCN=C(N)N)NC(=O)CN)C(=O)NCC(=O)N[C@@H](CCCN=C(N)N)C(=O)N[C@@H](CCCCN)C(=O)N[C@@H](Cc1ccccc1)C(=O)N[C@@H](CCCCN)C(=O)N[C@@H](CCCCN)C(=O)N[C@@H](CC(C)C)C(=O)N[C@@H](Cc1ccccc1)C(=O)N[C@@H](CCCCN)C(=O)N[C@@H](CCCCN)C(=O)N[C@@H](Cc1ccc(O)cc1)C(=O)NCC(=O)N1CCC[C@H]1C(=O)O [GRFRRLGRKFKKLFKKYGP]
